From publication PMC12281424, “A Rac-specific competitive inhibitor of guanine nucleotide binding reduces metastasis in triple-negative breast cancer” (Cell Reports Medicine, 2025)

Columns and labels:
MDA-MB-468 Luc cells = experiment: Orthotopic breast cancer (TNBC xenograft) model; type: in vivo, mouse; settings: 25 mg/kg/day i.p.
Experimental: The anti-metastatic potential of A41 was assessed in a TNBC xenograft model by orthotopic injection of MDA-MB-468 Luc cells into the mammary fat pad of […] Nordic Medical Research Institute (NMRI) nude mice randomized in 2 groups. The tumor grows gradually over time. At the 50th day post grafting, when a volume of ∼1,000 mm^3 was reached, the tumor was resected, which corresponded to tumor mass of approximately 0.6 g (Figure S8A). Mice were then treated with A41 (25 mg/kg/day, intraperitoneally; group 2) or vehicle for 4 weeks (group 1).
Figure 6 A41 decreases metastasis of TNBC cells in vivo (A) Representative images of luciferase bioluminescence intensities (BLI) in whole body, legs, and ovaries/uterus 4 weeks after resection of MD1-MB-468 Luc tumor in NMRI nude mice not treated (control) and treated with A41 (25 mg/kg/day, intraperitoneally for 4 weeks). (B) Metastasis frequency quantification based on ex vivo BLI measurements in indicated organs from control (black bars) and A41-treated mice 4 weeks after tumor resection (white bars) (N = 10–15 mice; ∗p < 0.05 vs. controls). (C) BLI quantification in legs and ovaries/uterus from control (black squares) and A41-treated (white squares) NMRI nude mice 4 weeks after tumor resection (N = 10–15 mice; ∗p < 0.05 vs. controls). (D) Cumulative proportion of immunocompetent control (red) and A41-treated mice (blue) displaying regrowth of the primary tumor after its resection. (E) Metastasis frequency quantified from ex vivo BLI measurements in leg bones, lungs, kidneys, and ovaries/uterus from immunocompetent control (black bar) and A41-treated (white bar) mice (N = 10 mice; ∗p < 0.05 vs. control). (F) Survival curve of immunocompetent control (red) and A41-treated mice (blue) after primary tumor resection (day 0).
Orthotopic cell xenograft was performed by injection of 4 million MDA-MB-468Luc cells in the fourth fat pad from 5-week-old NMRI nude mice. Primary tumour was allowed to develop during 5 weeks and tumour growth was assessed by tumour volume measurement using a caliper. Primary tumor was then removed by surgical exeresis and weighed. Treatments began 1 day before exeresis. A41 (25 mg/kg) was administered intraperitoneally on a daily basis during 4 weeks. Mice were weighed 5 times a week and in vivo bioluminescence intensities were measured once a week (Imager PerkinElmer IVIS spectrum bioluminescence imager). At the end of the protocol, mice were sacrificed and ex vivo bioluminescence intensities of indicated organs (legs, ovaries, uterus, lungs and liver) were measured within 15 min of D-luciferin intraperitoneal injection (150 mg kg−1). Photons emitted by cancer cells were counted by bioluminescent imaging and expressed in counts per minute (c.p.m.).

Dopamine D1 = Dopamine D1 (Homo sapiens, UniProt P21728); experiment: Safety screen; type: binding
Experimental: (§1) Blood cell counts, kinase profiler, safety screen, bacterial cytotoxicity, Ames, micronucleus assays were performed by the company Eurofins (France).

Dopamine D2L = Dopamine D2L (Homo sapiens, UniProt P14416); experiment: Safety screen; type: binding
Experimental: as §1

Muscarinic M3 = Muscarinic M3 (Homo sapiens, UniProt P20309); experiment: Safety screen; type: binding
Experimental: as §1

Transporter, Adenosine = experiment: Safety screen; type: binding, guinea pig
Experimental: as §1

BrSK1(h) = BrSK1(h) (Homo sapiens, UniProt Q8TDC3); experiment: Kinase Profiler; type: biochemical
Experimental: (§2) Blood cell counts, kinase profiler, safety screen, bacterial cytotoxicity, Ames, micronucleus assays were performed by the company Eurofins (France). The kinase profiler was performed by the company Eurofins (Discovery, Panlab and Cerep).

CaMKIß(h) = CaMKIß(h) (Homo sapiens, UniProt Q6P2M8); experiment: Kinase Profiler; type: biochemical
Experimental: as §2

CDK1/cyclinB(h) = CDK1/cyclinB(h) (Homo sapiens, UniProt P06493); experiment: Kinase Profiler; type: biochemical
Experimental: as §2

CHK1(h) = CHK1(h) (Homo sapiens, UniProt O14757); experiment: Kinase Profiler; type: biochemical
Experimental: (§3) The kinase profiler was performed by the company Eurofins (Discovery, Panlab and Cerep).

CK1δ(h) = CK1δ(h) (Homo sapiens, UniProt P48730); experiment: Kinase Profiler; type: biochemical
Experimental: as §3

CLIK1(h) = CLIK1(h) (Homo sapiens, UniProt Q8TDR2); experiment: Kinase Profiler; type: biochemical
Experimental: as §3

EGFR(h) = EGFR(h) (Homo sapiens, UniProt P00533); experiment: Kinase Profiler; type: biochemical
Experimental: as §3

ErbB4(h) = ErbB4(h) (Homo sapiens, UniProt Q15303); experiment: Kinase Profiler; type: biochemical
Experimental: as §3

IRAK1(h) = IRAK1(h) (Homo sapiens, UniProt P51617); experiment: Kinase Profiler; type: biochemical
Experimental: as §2

MKK4(m) = MKK4(m) (Mus musculus, UniProt P47809); experiment: Kinase Profiler; type: biochemical
Experimental: as §3

MSSK1(h) = MSSK1(h) (Homo sapiens, UniProt Q9UPE1); experiment: Kinase Profiler; type: biochemical
Experimental: as §2

MST4(h) = MST4(h) (Homo sapiens, UniProt Q9P289); experiment: Kinase Profiler; type: biochemical
Experimental: as §3

MuSK(h) = MuSK(h) (Homo sapiens, UniProt O15146); experiment: Kinase Profiler; type: biochemical
Experimental: as §3

MYLK2(h) = MYLK2(h) (Homo sapiens, UniProt Q9H1R3); experiment: Kinase Profiler; type: biochemical
Experimental: as §3

NEK1(h) = NEK1(h) (Homo sapiens, UniProt Q96PY6); experiment: Kinase Profiler; type: biochemical
Experimental: as §3

PAR-1Bα(h) = PAR-1Bα(h) (Homo sapiens, UniProt Q7KZI7); experiment: Kinase Profiler; type: biochemical
Experimental: as §3

Plk1(h) = Plk1(h) (Homo sapiens, UniProt P53350); experiment: Kinase Profiler; type: biochemical
Experimental: as §3

Rsk3(h) = Rsk3(h) (Homo sapiens, UniProt Q15349); experiment: Kinase Profiler; type: biochemical
Experimental: as §3

TYK2(h) = TYK2(h) (Homo sapiens, UniProt P29597); experiment: Kinase Profiler; type: biochemical
Experimental: as §2

Wee1B(h) = Wee1B(h) (Homo sapiens, UniProt P0C1S8); experiment: Kinase Profiler; type: biochemical
Experimental: as §3

PIP4K2a(h) = PIP4K2a(h) (Homo sapiens, UniProt P48426); experiment: Kinase Profiler; type: biochemical
Experimental: as §3

PIP5K1a(h) = PIP5K1a(h) (Homo sapiens, UniProt Q99755); experiment: Kinase Profiler; type: biochemical
Experimental: as §3

Chain of PAR-1Bα(h) (Q7KZI7 1-725 isoform Q7KZI7-4): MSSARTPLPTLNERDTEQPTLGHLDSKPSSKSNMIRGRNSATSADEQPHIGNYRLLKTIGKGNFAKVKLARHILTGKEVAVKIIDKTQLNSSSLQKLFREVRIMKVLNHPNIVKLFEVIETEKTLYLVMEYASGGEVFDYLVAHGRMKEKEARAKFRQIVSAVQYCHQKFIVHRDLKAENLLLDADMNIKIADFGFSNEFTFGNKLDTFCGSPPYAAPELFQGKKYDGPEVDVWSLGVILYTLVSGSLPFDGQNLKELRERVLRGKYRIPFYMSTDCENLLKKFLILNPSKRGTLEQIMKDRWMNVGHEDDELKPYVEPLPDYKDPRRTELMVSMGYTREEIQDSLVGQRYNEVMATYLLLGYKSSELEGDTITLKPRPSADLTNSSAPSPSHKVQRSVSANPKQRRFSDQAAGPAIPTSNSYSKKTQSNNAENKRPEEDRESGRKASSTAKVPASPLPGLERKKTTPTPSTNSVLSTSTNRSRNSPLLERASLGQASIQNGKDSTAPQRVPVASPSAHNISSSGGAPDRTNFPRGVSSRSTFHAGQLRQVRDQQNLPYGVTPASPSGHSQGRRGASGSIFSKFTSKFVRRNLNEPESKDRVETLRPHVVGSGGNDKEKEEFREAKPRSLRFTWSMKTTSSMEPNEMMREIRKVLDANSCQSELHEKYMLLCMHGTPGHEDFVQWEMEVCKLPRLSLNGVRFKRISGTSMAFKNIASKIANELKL
Chain of EGFR(h) (P00533 25-1210): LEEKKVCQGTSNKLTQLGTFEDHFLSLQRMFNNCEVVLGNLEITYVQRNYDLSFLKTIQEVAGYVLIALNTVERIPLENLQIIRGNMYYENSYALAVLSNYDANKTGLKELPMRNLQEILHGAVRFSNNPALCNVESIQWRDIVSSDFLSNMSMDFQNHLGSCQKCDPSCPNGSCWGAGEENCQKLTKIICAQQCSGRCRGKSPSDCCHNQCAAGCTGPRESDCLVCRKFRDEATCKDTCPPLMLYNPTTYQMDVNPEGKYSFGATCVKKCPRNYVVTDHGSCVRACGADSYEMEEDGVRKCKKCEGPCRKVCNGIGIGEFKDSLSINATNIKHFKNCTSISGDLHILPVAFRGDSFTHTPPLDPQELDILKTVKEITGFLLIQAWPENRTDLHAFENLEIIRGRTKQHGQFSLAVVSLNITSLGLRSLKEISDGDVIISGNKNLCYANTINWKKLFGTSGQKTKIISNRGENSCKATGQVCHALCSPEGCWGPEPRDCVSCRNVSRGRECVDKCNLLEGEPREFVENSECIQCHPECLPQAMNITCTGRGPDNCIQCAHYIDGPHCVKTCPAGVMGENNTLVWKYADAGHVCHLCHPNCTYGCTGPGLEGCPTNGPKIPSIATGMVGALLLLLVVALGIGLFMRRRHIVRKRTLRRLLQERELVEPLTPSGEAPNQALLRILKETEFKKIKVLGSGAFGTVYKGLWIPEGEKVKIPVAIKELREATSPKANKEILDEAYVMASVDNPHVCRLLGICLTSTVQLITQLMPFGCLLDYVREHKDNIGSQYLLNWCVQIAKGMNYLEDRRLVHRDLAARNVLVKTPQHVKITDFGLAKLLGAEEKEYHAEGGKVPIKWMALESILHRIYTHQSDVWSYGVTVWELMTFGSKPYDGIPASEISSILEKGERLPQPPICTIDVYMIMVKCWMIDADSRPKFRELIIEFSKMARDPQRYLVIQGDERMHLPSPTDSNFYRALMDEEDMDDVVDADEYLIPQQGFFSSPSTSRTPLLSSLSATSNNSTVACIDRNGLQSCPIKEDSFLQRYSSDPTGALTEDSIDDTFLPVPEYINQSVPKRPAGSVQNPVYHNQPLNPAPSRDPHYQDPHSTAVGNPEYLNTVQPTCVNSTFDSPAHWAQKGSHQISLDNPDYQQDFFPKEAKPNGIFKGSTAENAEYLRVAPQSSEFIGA
Chain of BrSK1(h) (Q8TDC3 whole entry): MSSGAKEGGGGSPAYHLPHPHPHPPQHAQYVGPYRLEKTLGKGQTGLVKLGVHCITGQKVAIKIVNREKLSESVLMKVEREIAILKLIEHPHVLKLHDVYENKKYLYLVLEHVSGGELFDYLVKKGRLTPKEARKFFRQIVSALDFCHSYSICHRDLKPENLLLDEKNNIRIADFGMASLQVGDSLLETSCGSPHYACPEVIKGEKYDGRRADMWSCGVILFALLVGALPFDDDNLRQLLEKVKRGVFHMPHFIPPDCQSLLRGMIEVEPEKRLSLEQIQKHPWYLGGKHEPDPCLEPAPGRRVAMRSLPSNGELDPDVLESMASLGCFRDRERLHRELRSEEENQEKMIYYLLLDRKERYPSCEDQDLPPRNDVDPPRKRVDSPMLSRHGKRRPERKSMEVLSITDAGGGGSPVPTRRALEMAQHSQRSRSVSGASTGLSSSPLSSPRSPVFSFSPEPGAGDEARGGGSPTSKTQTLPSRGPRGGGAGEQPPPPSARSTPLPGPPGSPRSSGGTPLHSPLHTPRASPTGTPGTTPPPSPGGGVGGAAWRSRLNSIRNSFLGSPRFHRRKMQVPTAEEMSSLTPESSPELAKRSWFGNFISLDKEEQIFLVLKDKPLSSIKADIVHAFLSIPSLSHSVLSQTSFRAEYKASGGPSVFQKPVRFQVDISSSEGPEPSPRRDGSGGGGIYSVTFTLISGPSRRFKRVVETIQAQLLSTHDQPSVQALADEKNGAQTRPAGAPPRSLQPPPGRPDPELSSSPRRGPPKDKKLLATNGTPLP
Chain of ErbB4(h) (Q15303 26-1308): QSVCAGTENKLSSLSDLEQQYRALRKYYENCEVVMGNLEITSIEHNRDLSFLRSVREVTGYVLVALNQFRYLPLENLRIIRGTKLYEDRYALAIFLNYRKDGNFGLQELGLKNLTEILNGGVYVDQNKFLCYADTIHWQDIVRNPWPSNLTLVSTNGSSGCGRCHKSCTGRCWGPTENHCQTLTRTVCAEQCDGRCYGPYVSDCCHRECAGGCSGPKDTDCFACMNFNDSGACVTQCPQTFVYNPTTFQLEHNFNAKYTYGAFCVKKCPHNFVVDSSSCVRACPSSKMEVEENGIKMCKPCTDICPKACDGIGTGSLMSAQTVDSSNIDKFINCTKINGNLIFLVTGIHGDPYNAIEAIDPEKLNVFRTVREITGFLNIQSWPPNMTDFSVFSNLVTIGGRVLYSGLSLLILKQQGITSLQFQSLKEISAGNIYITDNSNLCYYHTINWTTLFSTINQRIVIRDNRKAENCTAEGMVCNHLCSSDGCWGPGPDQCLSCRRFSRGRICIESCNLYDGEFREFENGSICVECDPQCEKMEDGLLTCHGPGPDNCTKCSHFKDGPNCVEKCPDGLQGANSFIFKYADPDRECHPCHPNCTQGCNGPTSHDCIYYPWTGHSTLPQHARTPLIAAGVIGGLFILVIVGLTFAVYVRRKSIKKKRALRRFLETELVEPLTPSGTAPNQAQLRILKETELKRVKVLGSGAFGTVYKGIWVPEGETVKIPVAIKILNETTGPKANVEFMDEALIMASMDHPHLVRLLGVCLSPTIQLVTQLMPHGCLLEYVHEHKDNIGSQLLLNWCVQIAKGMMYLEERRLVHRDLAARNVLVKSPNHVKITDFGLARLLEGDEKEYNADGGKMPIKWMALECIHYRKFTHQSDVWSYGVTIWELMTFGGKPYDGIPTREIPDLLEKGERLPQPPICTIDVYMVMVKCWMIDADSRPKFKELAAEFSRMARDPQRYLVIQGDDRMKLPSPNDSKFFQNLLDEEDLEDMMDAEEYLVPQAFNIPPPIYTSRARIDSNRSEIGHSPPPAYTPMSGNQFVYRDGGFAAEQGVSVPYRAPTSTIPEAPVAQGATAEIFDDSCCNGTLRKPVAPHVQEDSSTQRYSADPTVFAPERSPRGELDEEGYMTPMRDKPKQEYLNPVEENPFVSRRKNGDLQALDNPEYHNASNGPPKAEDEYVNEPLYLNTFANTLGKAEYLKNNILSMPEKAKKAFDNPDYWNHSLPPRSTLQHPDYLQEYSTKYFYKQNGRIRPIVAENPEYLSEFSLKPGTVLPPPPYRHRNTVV
Chain of Plk1(h) (P53350 whole entry): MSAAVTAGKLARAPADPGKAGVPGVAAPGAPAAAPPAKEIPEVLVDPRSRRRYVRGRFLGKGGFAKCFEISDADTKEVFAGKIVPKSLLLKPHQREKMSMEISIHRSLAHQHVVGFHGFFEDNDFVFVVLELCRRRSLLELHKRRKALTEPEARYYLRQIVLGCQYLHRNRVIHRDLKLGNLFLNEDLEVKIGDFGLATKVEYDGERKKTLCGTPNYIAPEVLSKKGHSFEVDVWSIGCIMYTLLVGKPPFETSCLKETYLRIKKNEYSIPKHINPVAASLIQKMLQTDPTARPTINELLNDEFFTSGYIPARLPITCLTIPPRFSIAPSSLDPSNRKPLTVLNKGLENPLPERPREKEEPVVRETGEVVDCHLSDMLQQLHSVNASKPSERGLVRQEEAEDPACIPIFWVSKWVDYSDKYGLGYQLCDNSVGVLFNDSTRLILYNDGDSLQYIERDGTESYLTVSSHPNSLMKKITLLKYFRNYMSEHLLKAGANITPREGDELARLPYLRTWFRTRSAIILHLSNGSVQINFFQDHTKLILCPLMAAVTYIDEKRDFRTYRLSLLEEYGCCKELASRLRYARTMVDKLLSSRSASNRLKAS
Chain of Dopamine D2L (P14416 whole entry): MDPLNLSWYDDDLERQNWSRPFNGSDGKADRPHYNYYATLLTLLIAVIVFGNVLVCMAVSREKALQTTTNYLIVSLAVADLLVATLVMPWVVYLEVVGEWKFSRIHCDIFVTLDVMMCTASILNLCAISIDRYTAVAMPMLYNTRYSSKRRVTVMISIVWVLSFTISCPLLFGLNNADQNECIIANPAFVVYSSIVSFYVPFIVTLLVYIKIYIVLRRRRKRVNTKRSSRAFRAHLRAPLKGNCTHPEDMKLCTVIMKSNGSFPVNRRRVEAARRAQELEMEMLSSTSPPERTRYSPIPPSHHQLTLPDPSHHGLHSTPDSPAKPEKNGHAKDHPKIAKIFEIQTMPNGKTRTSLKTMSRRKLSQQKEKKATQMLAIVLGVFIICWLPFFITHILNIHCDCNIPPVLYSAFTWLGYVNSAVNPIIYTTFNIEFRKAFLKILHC

SMILES: COc1ccc(OC)c(NS(=O)(=O)c2ccc(NC(=O)CCSc3ccc(C)cc3)cc2)c1 [Compound A41]
- primary tumor regrowth (in vivo BLI) (MDA-MB-468 Luc cells; 4 weeks after resection): decrease in primary tumor regrowth
- ex vivo luminescence intensity of femur, ovaries, and uterus (MDA-MB-468 Luc cells; 4 weeks post resection): significantly lower in A41-treated than in control mice
- metastasis frequency (leg bones, lungs, kidneys, ovaries, uterus; ex vivo BLI) (MDA-MB-468 Luc cells; 4 weeks post resection): significantly higher frequency in control than in A41-treated mice
- weight of the mice (MDA-MB-468 Luc cells; 4 weeks, vs vehicle): no difference between the two groups
- % inh. (Dopamine D1): 17%
- % inh. (Dopamine D2L): 9%
- % inh. (Muscarinic M3): 4%
- % inh. (Transporter, Adenosine): 37%
- Activity(%) (BrSK1(h)): 86%
- Activity(%) (CaMKIß(h)): 114%
- Activity(%) (CDK1/cyclinB(h)): 96%
- Activity(%) (CHK1(h)): 120%
- Activity(%) (CK1δ(h)): 96%
- Activity(%) (CLIK1(h)): 112%
- Activity(%) (EGFR(h)): 115%
- Activity(%) (ErbB4(h)): 108%
- Activity(%) (IRAK1(h)): 104%
- Activity(%) (MKK4(m)): 109%
- Activity(%) (MSSK1(h)): 125%
- Activity(%) (MST4(h)): 101%
- Activity(%) (MuSK(h)): 112%
- Activity(%) (MYLK2(h)): 103%
- Activity(%) (NEK1(h)): 104%
- Activity(%) (PAR-1Bα(h)): 111%
- Activity(%) (Plk1(h)): 106%
- Activity(%) (Rsk3(h)): 93%
- Activity(%) (TYK2(h)): 108%
- Activity(%) (Wee1B(h)): 89%
- Activity(%) (PIP4K2a(h)): 95%
- Activity(%) (PIP5K1a(h)): 100%
